Tests used:
A2780 (ovary) = experiment: Tumour cell proliferation/vitality assay (Alamar Blue); assay type: cell-based; conditions: Homo sapiens, 96 h, A2780 cells, 4 days of cultivation with test substance
Procedure: In the present experiment description, the inhibition of tumour cell proliferation/tumour cell vitality by active ingredients is described.
The cells are sown in a suitable cell density in microtitre plates (96-well format) and the test substances are added in the form of a concentration series. After four further days of cultivation in serum-containing medium, the tumour cell proliferation/tumour cell vitality can be determined by means of an Alamar Blue test system.
The cells are cultivated in medium. At intervals of several days, the cells are detached from the culture dishes with the aid of trypsin solution and sown in suitable dilution in fresh medium. The cells are cultivated at 37° Celsius and 10% CO2.
A defined number of cells (for example 2000 cells) per culture/well in a volume of 180 μl of culture medium are sown in microtitre plates (96 well cell-culture plates) using a multichannel pipette. The cells are subsequently cultivated in a CO2 incubator (37° C. and 10% CO2).
The test substances are dissolved, for example, in DMSO and subsequently employed in corresponding concentration (if desired in a dilution series) in the cell culture medium. The dilution steps can be adapted depending on the efficiency of the active ingredients and the desired spread of the concentrations. Cell culture medium is added to the test substances in corresponding concentrations. The addition of the test substances to the cells can take place on the same day as the sowing of the cells. To this end, in each case 20 μl of substance solution from the predilution plate are added to the cultures/wells. The cells are cultivated for a further 4 days at 37° Celsius and 10% CO2.
In each case, 20 μl of Alamar Blue reagent are added per well, and the microtitre plates are incubated, for example, for a further seven hours in a CO2 incubator (at 37° C. and 10% CO2). The plates are measured in a reader with a fluorescence filter at a wavelength of 540 nm. The plates can be shaken gently immediately before the measurement.
The absorbance value of the medium control (no cells and test substances used) is subtracted from all other absorbance values. The controls (cells without test substance) are set equal to 100 percent, and all other absorbance values are set in relation thereto (for example in % of control):
IC50 values (50% inhibition) are determined with the aid of statistics programs, such as, for example, RS1.

[1] = test system: PDK1 kinase activity in PC3 cells (phospho-T308-PKB); experiment: Cellular testing of PDK1 kinase inhibitors in PC3 cells (Luminex, phospho-T308-PKB); assay type: cell-based; conditions: Homo sapiens, PC-3, 0.5 h, 30 min with test substance, serum-free, phospho-T308-PKB by Luminex, read-out: IC50 [PC3 P-PKB Thr308]
Procedure: Method for the Cellular Testing of PDK1 Kinase Inhibitors in PC3 Cells.
The cellular assay for the determination of the PDK1 kinase activity is carried out as a Luminex assay in the 96-well format. PC3 cells are sown at 20,000 cells per well in 100 μl of medium (45% of […]/45% of Ham's F12/10% of FCS) and incubated on the following day for 30 min with a serial dilution of the test substance (7 concentrations) under serum-free conditions. The cells are subsequently lysed using 90 μl of lysis buffer (20 mM tris/HCl pH 8.0, 150 mM NaCl, 1% of NP40, 10% of glycerol, 1% of phosphatase inhibitor I, 1% of phosphatase inhibitor II, 0.1% of protease inhibitor cocktail III, 0.01% of benzonase) per well, and the lysates are separated off from insoluble cell constituents by means of centrifugation through a 96-well filter plate (0.65 μm). The lysates are incubated overnight at 4° C. with shaking with Luminex beads to which an anti-total PKB antibody is coupled. The detection is carried out on the following day by addition of a phospho-T308-PKB antibody and a species-specific […] secondary antibody. The detection of phospho-T308-PKB is carried out by measurement in a Luminex100 instrument by determination of 100 events per cavity in a measurement time of 60 sec. As pharmacological blank, the signals obtained from cells which have been treated with 10 μM staurosporin are subtracted from all other batches. The control value used for maximum phosphorylation of PKB on T308 are the signals from cells which have only been treated with the solvent (0.3% of DMSO). The values of the batches treated with test substance are calculated therefrom as percentage of control, and IC50 values are determined by means of RS1.

PDK1 = target: T1, PDK1 (Homo sapiens, UniProt O15530); experiment: Test for the inhibition of PDK1 (flashplate, 33P-ATP); assay type: biochemical; conditions: His6-PDK1 3.4 nM, 4 μM ATP, 30° C., 60 min
T1 construct: His6 (N)
Procedure: The experimental batches are carried out in a flashplate system with 384 wells/microtitration plate.
In each case, the PDK1 sample His6-PDK1(SEQ ID NO: 2)(1-50)(3.4 nM), the PDK1 substrate biotin-bA-bA-[…] (SEQ ID NO: 3) (400 nM), 4 μM ATP (with 0.2 μCi of ^33P-ATP/well) and the test substance in 50 μl of conventional experimental solution per well are incubated at 30° C. for 60 min. The test substances are employed in corresponding concentrations (if desired in a dilution series). The control is carried out without test substance. The reaction is stopped using standard methods and washed. The activity of the kinase is measured via the incorporated radioactivity in top count. In order to determine the non-specific kinase reaction (blank value), the experimental batches are carried out in the presence of 100 nM staurosporin.
The radioactivity (decompositions per minute) of the blank value (no use of test substance in the presence of staurosporin) is subtracted from all other radioactivity values. The controls (kinase activity without test substance) are set equal to 100 percent and all other radioactivity values (after subtracting the blank value) are expressed set in relation thereto (for example in % of the control).
IC50 values (50% inhibition) are determined with the aid of statistics programmes, such as, for example, RS1.

T1 sequence (O15530 51-556): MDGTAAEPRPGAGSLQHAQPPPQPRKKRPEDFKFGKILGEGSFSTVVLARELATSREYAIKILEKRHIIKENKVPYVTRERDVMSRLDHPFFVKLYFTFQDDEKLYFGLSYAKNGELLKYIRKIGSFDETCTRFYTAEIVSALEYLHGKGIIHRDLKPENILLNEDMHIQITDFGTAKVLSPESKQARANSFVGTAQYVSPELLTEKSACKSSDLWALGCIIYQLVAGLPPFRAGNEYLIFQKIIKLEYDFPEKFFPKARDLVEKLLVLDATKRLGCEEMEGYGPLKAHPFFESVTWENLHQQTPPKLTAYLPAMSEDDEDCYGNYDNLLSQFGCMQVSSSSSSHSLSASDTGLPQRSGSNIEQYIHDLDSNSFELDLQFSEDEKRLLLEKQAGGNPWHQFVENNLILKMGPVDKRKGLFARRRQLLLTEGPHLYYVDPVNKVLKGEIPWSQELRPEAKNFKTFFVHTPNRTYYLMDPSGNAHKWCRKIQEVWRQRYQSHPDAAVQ

IC50 (A2780 (ovary)) [µM]	IC50 [1] [µM]	IC50 (PDK1) [µM]	Structure (SMILES)
1 to 10	1 to 10	0.01 to 1	CCc1cc(-c2c[nH]c3ncc(-c4cnn(CCCN(C)C)c4)cc23)nc(N)n1 [Compound A4, 4-{5-[1-(3-dimethylaminopropyl)-1H-pyrazol-4-yl]-1H-pyrrolo[2,3-b]pyridin-3-yl}-6-ethylpyrimidin-2-ylamine]
	10 to 20	0.01 to 1	CCC(O)c1cc(-c2c[nH]c3ncc(-c4cnn(C(C)C)c4)cc23)nc(N)n1 (centres unmarked) [Compound A103, 1-{2-Amino-6-[5-(1-isopropyl-1H-pyrazol-4-yl)-1H-pyrrolo[2,3-b]pyridin-3-yl]-pyrimidin-4-yl}propan-1-ol]
	1 to 10	0.01 to 1	CCc1cc(-c2c[nH]c3ncc(-c4cnn(CC(=O)N5CCCc6ccccc65)c4)cc23)nc(N)n1 [Compound A128, 2-{4-[3-(2-Amino-6-ethylpyrimidin-4-yl)-1H-pyrrolo[2,3-b]pyridin-5-yl]pyrazol-1-yl}-1-(3,4-dihydro-2H-quinolin-1-yl)ethanone]
	10 to 20	0.01 to 1	CCc1cc(-c2c[nH]c3ncc(-c4cnn(CC(=O)N(C)C)c4)cc23)nc(N)n1 [Compound A34, 2-{4-[3-(2-Amino-6-ethylpyrimidin-4-yl)-1H-pyrrolo[2,3-b]pyridin-5-yl]pyrazol-1-yl}-N,N-dimethylacetamide]
	10 to 20	0.01 to 1	CCc1cc(-c2c[nH]c3ncc(-c4cnn(CC(=O)N5CCOCC5)c4)cc23)nc(N)n1 [Compound A32, 2-{4-[3-(2-Amino-6-ethylpyrimidin-4-yl)-1H-pyrrolo[2,3-b]pyridin-5-yl]pyrazol-1-yl}-1-morpholin-4-ylethanone]
	10 to 20	0.01 to 1	CCc1cc(-c2c[nH]c3ncc(-c4cnn(CCO)c4)cc23)nc(N)n1 [Compound A33, 2-{4-[3-(2-Amino-6-ethylpyrimidin-4-yl)-1H-pyrrolo[2,3-b]pyridin-5-yl]pyrazol-1-yl}ethanol]
	10 to 20	1 to 10	CC(C)n1cc(-c2cnc3[nH]cc(-c4cc(C(O)c5ccccc5)nc(N)n4)c3c2)cn1 (centres unmarked) [Compound A115, {2-Amino-6-[5-(1-isopropyl-1H-pyrazol-4-yl)-1H-pyrrolo[2,3-b]pyridin-3-yl]-pyrimidin-4-yl}phenylmethanol]
	10 to 20	0.01 to 1	CC(C)n1cc(-c2cnc3[nH]cc(-c4cc(CCCO)nc(N)n4)c3c2)cn1 [Compound A38, 3-{2-Amino-6-[5-(1-isopropyl-1H-pyrazol-4-yl)-1H-pyrrolo[2,3-b]pyridin-3-yl]-pyrimidin-4-yl}propan-1-ol]
	10 to 20	1 to 10	CCc1cc(-c2c[nH]c3ncc(-c4ccc(Cl)s4)cc23)nc(N)n1 [Compound A37, 4-[5-(5-Chlorothiophen-2-yl)-1H-pyrrolo[2,3-b]pyridin-3-yl]-6-ethylpyrimidin-2-ylamine]
	1 to 10	0.01 to 1	CC(C)n1cc(-c2cnc3[nH]cc(-c4cc(C5CCCCC5)nc(N)n4)c3c2)cn1 [Compound A111, 4-Cyclohexyl-6-[5-(1-isopropyl-1H-pyrazol-4-yl)-1H-pyrrolo[2,3-b]pyridin-3-yl]pyrimidin-2-ylamine]
	10 to 20	1 to 10	CCc1cc(-c2c[nH]c3ncc(-c4ncc(-c5cccc(N)c5)o4)cc23)nc(N)n1 [Compound A42, 4-{5-[5-(3-Aminophenyl)oxazol-2-yl]-1H-pyrrolo[2,3-b]pyridin-3-yl}-6-ethylpyrimidin-2-ylamine]
	10 to 20	1 to 10	CC(C)n1cc(-c2cnc3[nH]cc(-c4cc(C5(O)CCNCC5)nc(N)n4)c3c2)cn1 [Compound A125, 4-{2-Amino-6-[5-(1-isopropyl-1H-pyrazol-4-yl)-1H-pyrrolo[2,3-b]pyridin-3-yl]-pyrimidin-4-yl}piperidin-4-ol]

Second part, the compound before the results:

Structure (SMILES)	IC50 (A2780 (ovary)) [µM]	IC50 [1] [µM]	IC50 (PDK1) [µM]
CCCCc1cc(-c2c[nH]c3ncc(-c4cnn(CCN(C)C)c4)cc23)nc(N)n1 [Compound A85, 4-Butyl-6-{5-[1-(2-dimethylaminoethyl)-1H-pyrazol-4-yl]-1H-pyrrolo[2,3-b]-pyridin-3-yl}pyrimidin-2-ylamine]		1 to 10	0.01 to 1
CC(=O)NCCCc1cc(-c2c[nH]c3ncc(-c4cnn(C(C)C)c4)cc23)nc(N)n1 [Compound A97, N-(3-{2-Amino-6-[5-(1-isopropyl-1H-pyrazol-4-yl)-1H-pyrrolo[2,3-b]pyridin-3-yl]pyrimidin-4-yl}propyl)acetamide]		10 to 20	0.01 to 1
CC(C)n1cc(-c2cnc3[nH]cc(-c4cc(C5(O)CCN(C(=O)OCc6ccccc6)CC5)nc(N)n4)c3c2)cn1 [Compound A122, 4-{2-Amino-6-[5-(1-isopropyl-1H-pyrazol-4-yl)-1H-pyrrolo[2,3-b]pyridin-3-yl]-pyrimidin-4-yl}-4-hydroxypiperidine-1-carboxylic acid benzyl ester]		10 to 20	0.01 to 1
Nc1nc(CCN2CCOCC2)cc(-c2c[nH]c3ncccc23)n1 [Compound A49, 4-(2-Morpholin-4-ylethyl)-6-(1H-pyrrolo[2,3-b]pyridin-3-yl)pyrimidin-2-ylamine]		10 to 20	1 to 10
CC(C)CC(O)c1cc(-c2c[nH]c3ncc(-c4cnn(C(C)C)c4)cc23)nc(N)n1 (centres unmarked) [Compound A104, 1-{2-Amino-6-[5-(1-isopropyl-1H-pyrazol-4-yl)-1H-pyrrolo[2,3-b]pyridin-3-yl]-pyrimidin-4-yl}-3-methylbutan-1-ol]		1 to 10	0.01 to 1
CC(C)n1cc(-c2cnc3[nH]cc(-c4cc(CCCn5ccnc5)nc(N)n4)c3c2)cn1 [Compound A108, 4-(3-Imidazol-1-ylpropyl)-6-[5-(1-isopropyl-1H-pyrazol-4-yl)-1H-pyrrolo-[2,3-b]pyridin-3-yl]pyrimidin-2-ylamine]		10 to 20	0.01 to 1
CC(C)N1CCC(O)(c2cc(-c3c[nH]c4ncc(-c5cnn(C(C)C)c5)cc34)nc(N)n2)CC1 [Compound A114, 4-{2-Amino-6-[5-(1-isopropyl-1H-pyrazol-4-yl)-1H-pyrrolo[2,3-b]pyridin-3-yl]-pyrimidin-4-yl}-1-isopropylpiperidin-4-ol]		10 to 20	0.01 to 1
CN(C)CCn1cc(-c2cnc3[nH]cc(-c4cc(CCCCO)nc(N)n4)c3c2)cn1 [Compound A39, 4-(2-Amino-6-{5-[1-(2-dimethylaminoethyl)-1H-pyrazol-4-yl]-1H-pyrrolo-[2,3-b]pyridin-3-yl}pyrimidin-4-yl)butan-1-ol]		10 to 20	0.01 to 1

From patent US8420820B2, “Pyrrolopyridinylpyrimidin-2-ylamine derivatives” (Merck Patent GmbH, priority 2008, dated 2013)
